The values that follow come from paper PMC12652692, “Synthesis and In Vitro Anticancer Evaluation of Novel Phosphonium Derivatives of Chrysin” (International Journal of Molecular Sciences, 2025).

Holding throughout (test): NCI60 one-dose screen
What all share (type): cell-based

Experiment [1] relates to HS 578T. Conditions: Homo sapiens, read-out: Growth percent. Here is the method: (§1) The screening results are presented in the Supplementary Materials (Table S1), where the cytotoxicity was determined for the 10 µM concentration. […] The negative numbers indicate significant decreases in the cell number. […] Compared to the reference chrysin (2), all phosphonium hybrids (3a–h) had significant antiproliferative activities. […] At the same time, it should be noted that more than 60% average reduction was also obtained in the case of the other examined conjugates (3a–h).
(§2) A detailed description of the NCI screening procedures, including the one-dose and five-dose tests, can be found in the Supplementary Materials, on the website of NCI [39], and in our previous work.
(§3) A detailed description of the NCI screening procedures can also be found on the website of NCI [39], and in our […]
(§4) All candidates were examined at first at a single high dose (10 μM) in the full NCI60 cell panel. The value reported for the one-dose test is growth relative to the no-drug control and relative to the time zero number of cells. This made possible the disclosure of both growth inhibition (numbers between 0 and 100) and lethality (numbers less than 0). For example, a value of 100 means no growth inhibition. A value of 20 would mean 80% growth inhibition. A value of 0 means no net growth over the course of the analysis. A value of −20 would mean 20% lethality. A value of −100 means all cells are dead. […]
(§5) concentration levels. The human tumor cell lines of the cancer screening panel were grown in RPMI 1640 medium containing 5% fetal bovine serum and 2 mM l-glutamine. Characteristically, cells were injected in 96-well microtiter plates in 0.1 mL at plating densities ranging from 5000 to 40,000 cells/well, depending on the doubling time of individual cell lines. After cell inoculation, the microtiter plates were incubated at 37 °C, 5% carbon dioxide, 95% air, and 100% relative humidity for 24 hours before the addition of tested compounds. After 24 hours, 2 plates of each cell line were fixed in situ with Cl3COOH (TCA), to represent a measurement of the cell population for each cell line at the time of drug addition (tz). Tested compounds were solubilized in DMSO at 400-fold the desired final maximum test concentration and stored frozen before application. In the course of the drug addition, an aliquot of frozen concentrate was thawed and diluted to twice the desired final maximum test concentration with a complete medium containing 50 μg mL−1 gentamicin. Additional four, 10-fold or ½ log serial dilutions were produced to furnish a total of five drug concentrations plus control. Aliquots of 0.1 mL of these different drug dilutions were added to the appropriate microtiter wells already containing 0.1 mL of medium, resulting in the required final drug concentrations.
(§6) Following drug addition, the plates were incubated at 37 °C, 5% carbon dioxide, 95% air, and 100% relative humidity for an additional 48 hours. For adherent cells, the test was finished by the addition of cold Cl3COOH. Cells were fixed in situ by the addition of 50 μL of cold 50% (w/v) Cl3COOH, and incubated at 4 °C for 1 hour. The supernatant was discarded, and the plates were washed with H2O (5×) and dried in air. Sulforhodamine B (SRB) solution (0.1 mL) at 0.4% (w/v) in 1% CH3COOH was added to each well, and plates were incubated at RT for 10 min. After staining, the unbound dye was removed by washing five times with 1% CH3COOH, and the plates were dried in the air. The bound stain is afterward solubilized with a 10 mM trizma base, and the absorbance is read on an automated plate reader at λ = 515 nm. Utilizing the seven absorbance measurements [time zero (tz), control growth (c), and test growth in the presence of the drug at the five concentration levels (ti)], the percentage growth was determined at each of the drug concentration levels. Growth inhibition (%) was calculated as:
(§7) [(ti − tz)/(c − tz)] × 100, for concentrations where ti ≥ tz (1) […]

Experiment [2] concerns 786-0. Conditions: Homo sapiens; 786-0, 10 μM; read-out: Growth percent. The protocol:
as §1, §2, §3, §4, §5, §6, §7

For experiment [3], the system named is IGROV1. To be noted: Homo sapiens, IGROV-1; IGROV1, 10 μM; read-out: Growth percent. Here is the method:
as §1, §2, §3, §4, §5, §6, §7

Experiment [4] relates to NCI-H522. Conditions: Homo sapiens; NCI-H522, 10 μM; read-out: Growth percent. Here is the method: as §1, §2, §3, §4, §5, §6, §7
In experiment [5] the test system is U251. To be noted: Homo sapiens, U-251; U251, 10 μM; read-out: Growth percent. The protocol:
as §1, §2, §3, §4, §5, §6, §7

The test system of experiment [6] is A549/ATCC. Conditions: Homo sapiens, read-out: Growth percent. Here is the method:
as §1, §2, §3, §4, §5, §6, §7

The subject of experiment [7] is MCF7. Conditions: Homo sapiens; MCF7, 10 μM; read-out: Growth percent. The protocol:
as §1, §2, §3, §4, §5, §6, §7

The test system of experiment [8] is SF-539. Conditions: Homo sapiens; SF-539, 10 μM; read-out: Growth percent. The protocol:
as §1, §2, §3, §4, §5, §6, §7

In experiment [9] the test system is UACC-257. To be noted: Homo sapiens; UACC-257, 10 μM; read-out: Growth percent. Here is the method:
as §1, §2, §3, §4, §5, §6, §7

The test system of experiment [10] is TK-10. To be noted: Homo sapiens; TK-10, 10 μM; read-out: Growth percent. Here is the method:
as §1, §2, §3, §4, §5, §6, §7

Experiment [11] deals with HT29. To be noted: Homo sapiens, HT-29; HT29, 10 μM; read-out: Growth percent. The protocol: as §1, §2, §3, §4, §5, §6, §7
Experiment [12] deals with SW-620. Conditions: Homo sapiens; SW-620, 10 μM; read-out: Growth percent. Here is the method:
as §1, §2, §3, §4, §5, §6, §7

In experiment [13] the test system is CAKI-1. To be noted: Homo sapiens; CAKI-1, 10 μM; read-out: Growth percent. Here is the method: as §1, §2, §3, §4, §5, §6, §7
The subject of experiment [14] is HCC-2998. Conditions: Homo sapiens; HCC-2998, 10 μM; read-out: Growth percent. The protocol: as §1, §2, §3, §4, §5, §6, §7
Experiment [15] relates to HCT-15. Conditions: Homo sapiens; HCT-15, 10 μM; read-out: Growth percent. The protocol: as §1, §2, §3, §4, §5, §6, §7
Experiment [16] deals with EKVX. Conditions: Homo sapiens, read-out: Growth percent. Here is the method:
as §1, §2, §3, §4, §5, §6, §7

The subject of experiment [17] is LOX IMVI. Conditions: Homo sapiens, read-out: Growth percent. Here is the method:
as §1, §2, §3, §4, §5, §6, §7

Experiment [18] deals with MDA-MB-468. To be noted: Homo sapiens; MDA-MB-468, 10 μM; read-out: Growth percent. Here is the method: as §1, §2, §3, §4, §5, §6, §7
The test system of experiment [19] is MDA-MB-435. To be noted: Homo sapiens; MDA-MB-435, 10 μM; read-out: Growth percent. The protocol:
as §1, §2, §3, §4, §5, §6, §7

Experiment [20] concerns BT-549. Conditions: Homo sapiens; BT-549, 10 μM; read-out: Growth percent. Here is the method:
as §1, §2, §3, §4, §5, §6, §7

Experiment [21] relates to MALME-3M. To be noted: Homo sapiens, read-out: Growth percent. Here is the method:
as §1, §2, §3, §4, §5, §6, §7

With `O=c1cc(-c2ccccc2)oc2cc(OCCCC[P+](c3ccccc3)(c3ccccc3)c3ccccc3)cc(O)c12` [3a], the activity at 10 µM in [1] was -35.2%; in experiment [2], -69.5%; in [3], -75.7%; in experiment [4], -81.9%; in [5], -57.4%; in [6] it was -56%. The activity at 10 µM was -79.1% in experiment [7]; -95.7% in experiment [8]; -91% in experiment [9]; -81.8% in [10]; -65% in experiment [11]; -81.7% in experiment [12]. The activity at 10 µM is -97.1% in [13]; -93.1% in [14]; -94.2% in experiment [15]; -97.6% in experiment [16]; -90.1% in experiment [17]; -84.9% in experiment [18]. Moreover, the values for the activity at 10 µM in experiment [19], in experiment [20] and in experiment [21] were -67.5%, -83% and -88%, respectively.
For the compound `Cc1ccc([P+](CCCCOc2cc(O)c3c(=O)cc(-c4ccccc4)oc3c2)(c2ccc(C)cc2)c2ccc(C)cc2)cc1` [3b], the activity at 10 µM in experiment [1] is -52.2%; in [2] it was -69.8%; in experiment [3] it was -46.9%; in [4], -74.4%; in [5], -50%; in experiment [6], -49.5%. Also, the activity at 10 µM in experiment [7] was -74.8%; in [8], -80.5%; in [9] it was -72.2%; in [10] it was -79.3%; in [11], -60.7%; in experiment [12] it was -68.5%. The activity at 10 µM in experiment [13] was -90.4%; in experiment [14], -88.7%; in experiment [15], -88%; in experiment [16] it was -88.3%; in experiment [17] it was -91.2%; in experiment [18], -87%. Further, the activity at 10 µM is -88.2% in experiment [19], -19% in experiment [20] and -57.9% in [21].
Turning to `COc1ccc([P+](CCCCOc2cc(O)c3c(=O)cc(-c4ccccc4)oc3c2)(c2ccc(OC)cc2)c2ccc(OC)cc2)cc1` [3c], the activity at 10 µM is -62.7% in [1]; -65.3% in experiment [2]; -6.99% in [3]; -84.9% in experiment [4]; -92.6% in experiment [5]; -91.2% in [6]. Besides, the activity at 10 µM in experiment [7] was -56.8%; in experiment [8] it was -66.9%; in experiment [9] it was -94.7%; in [10], -87.1%; in [11], -82.8%; in experiment [12] it was -34.8%. Moreover, the activity at 10 µM is -75.5% in experiment [13]; -72.9% in [14]; -64.2% in [15]; -70.9% in [16]; -78.8% in [17]; -77.4% in [18]. In addition, the activity at 10 µM in [19] was -89.6%; in experiment [20], -82.6%; in experiment [21], -45%.
Consider `O=c1cc(-c2ccccc2)oc2cc(OCCCC[P+](c3ccc(F)cc3)(c3ccc(F)cc3)c3ccc(F)cc3)cc(O)c12` [3d], for which the activity at 10 µM in experiment [1] is -54.5%; in experiment [2], -56.5%; in experiment [3], -64%; in [4], -74.4%; in [5], -40.7%; in [6] it was -41.1%. Also, the activity at 10 µM in experiment [7] was -84.8%; in experiment [8], -89.6%; in experiment [9] it was -82.1%; in [10], -84.8%; in experiment [11] it was -69.8%; in [12], -67.5%. Also, the activity at 10 µM in experiment [13] was -93.6%; in experiment [14], -89%; in experiment [15] it was -48.6%; in [16], -83.9%; in [17], -93.7%; in experiment [18] it was -85.7%. For the same compound, the values for the activity at 10 µM in [19], in experiment [20] and in experiment [21] were -90.8%, -76% and -82.4%, respectively.
Turning to `O=c1cc(-c2ccccc2)oc2cc(OCCCC[P+](C3CCCCC3)(C3CCCCC3)C3CCCCC3)cc(O)c12` [3e], the activity at 10 µM in experiment [1] is -62.1%; in experiment [2], -80.1%; in experiment [3], -59.4%; in [4], -88%; in experiment [5], -95.5%; in experiment [6], -95.3%. For the same compound, the activity at 10 µM was -77% in [7]; 87.1% in [8]; -92.2% in [9]; -91.3% in experiment [10]; -84.9% in experiment [11]; -76.4% in experiment [12]. Further, the activity at 10 µM in [13] is -90.8%; in [14], -84.7%; in [15], -88.8%; in experiment [16], -83.5%; in experiment [17], -90.5%; in experiment [18], -83.5%. Besides, the values for the activity at 10 µM in experiment [19], in [20] and in experiment [21] were -93.6%, -89.9% and -76.9%, respectively.
